Reference: patent US20030157553A1, “Methods of assaying for G protein-coupled receptor ligands and modulators” (priority 2000, published 2003)

How the values were obtained:
[1] = test system: β2AR; assay: Direct binding assay of in vitro translated tritiated arrestins to purified β2AR reconstituted into phospholipid vesicles; settings: activated by 0.1 mM agonist isoproterenol, FIG. 1A; for binding to activated unphosphorylated receptor: unphosphorylated β2AR
Source text: Mutagenesis and Biochemical Characterization of β-Arrestins—Mutations Arg169→Glu (CGG→GAG), Gln394→Ter (CAA→TAA), and Asp383→Ter (GAT→TAG) were introduced by polymerase chain reaction in β-arrestin construct pBARR (Gurevich et al. (1995) J. Biol. Chem. 270:720-731), that was used for in vitro transcription and translation, as described (Gurevich et al. (1995), supra). NcoI/HindIII 1404-base pair open reading frame was then subdloned into appropriately digested Escherichia coliexpression vector pTrcHisB (Invitrogen). All β-arrestin species were expressed in the in vitro translation system and tested in the direct binding assay (Gurevich et al. (1995), supra), overexpressed in E. coli, purified to apparent homogeneity (Gray-Keller et al. (1997) Biochemistry 36:7058-7063), and characterized in the agonist affinity shift assay (Gurevich et al. (1997) J. Biol Chem. 272:28849-28852), essentially as described.
Direct Binding Assay—In vitro translated tritiated arrestins (50 fmol) were incubated in 50 mM Tris-HCl, pH 7.5, 0.5 mM MgCl2, 1.5 mM dithiothreitol, 50 mM potassium acetate with 7.5 pmol of the various functional forms of rhodopsin or with P-β2AR or β2AR (100 fmol/assay) in a final volume of 50 μl for 5 min at 37° C. in room light (rhodopsin) or for 60 min at 30° C. in the presence of 0.1 mM -agonist isoproterenol. The samples were immediately cooled on ice and loaded onto 2 ml Sepharose 2B columns equilibrated with 20 mM Tris-HCl, pH 7.5, 2 mM EDTA. Bound arrestin eluted with receptor-containing membranes in the void volume (between 0.5 and 1.1 ml). Nonspecific binding determined in the presence of 0.3 μg of liposomes was subtracted.

[2] = test system: β2AR; assay: Agonist affinity shift assay ([125I] iodopindolol), formation of high agonist affinity complex (HAC); assay type: binding; settings: 1 μM arrestin, FIG. 2A
Source text: Mutagenesis and Biochemical Characterization of β-Arrestins—Mutations Arg169→Glu (CGG→GAG), Gln394→Ter (CAA→TAA), and Asp383→Ter (GAT→TAG) were introduced by polymerase chain reaction in β-arrestin construct pBARR (Gurevich et al. (1995) J. Biol. Chem. 270:720-731), that was used for in vitro transcription and translation, as described (Gurevich et al. (1995), supra). NcoI/HindIII 1404-base pair open reading frame was then subdloned into appropriately digested Escherichia coliexpression vector pTrcHisB (Invitrogen). […]
Agonist Affinity ShiftAssay—P-β2AR or β2AR (10-15 fmol/assay) was incubated in 0.25 ml of 10 mM Tris-HCl, pH 7.4, 100 mM NaCl (buffer A) containing 0.1 mg/ml bovine serum albumin in the presence of 65-75 fmol of [^125I] iodopindolol (NEN Life Science Products) and the indicated concentrations of arrestins and agonists for 60 min at 22° C. […] Receptor-containing liposomes with bound radioligand were eluted with buffer A (between 0.6 and 1.5 ml), and radioactivity was quantitated in a liquid scintillation counter. Nonspecific binding was determined in the presence of 10 μM alprenolol. […]

Substance: β-arrestin-(1-382): bovine β-arrestin mutant Asp383→Ter, truncated regulatory COOH terminus
- binding to activated unphosphorylated receptor [1]: significantly higher binding
- percentage of HAC formed by unphosphorylated β2AR [2]: 22±4%

Substance: β-arrestin-(1-393): bovine β-arrestin mutant Gln394→Ter, part of the regulatory COOH terminus deleted
- binding to activated unphosphorylated receptor [1]: bind poorly

Substance: β-arrestin: wild type bovine β-arrestin, comparator for the mutants
- binding to activated and phosphorylated β2AR ([1]; phosphorylated β2AR (P-β2AR)): readily bind
- binding to activated unphosphorylated receptor [1]: bind poorly
